Earlier results in PMC9851200, “Multiparameter phenotypic screening for endogenous TFEB and TFE3 translocation identifies novel chemical series modulating lysosome function” (Autophagy, 2022).

Experiments:
Set-up in all cases: method as in original PKIS2 published data
[1] = molecular target: T1, kinases (KINOMEscan panel) (Homo sapiens, UniProt Q12851); conditions: kinase MAP4K2; Published KINOMEscan; ref original PKIS2 published data; cited from earlier work
T1 sequence (Q12851 1-820): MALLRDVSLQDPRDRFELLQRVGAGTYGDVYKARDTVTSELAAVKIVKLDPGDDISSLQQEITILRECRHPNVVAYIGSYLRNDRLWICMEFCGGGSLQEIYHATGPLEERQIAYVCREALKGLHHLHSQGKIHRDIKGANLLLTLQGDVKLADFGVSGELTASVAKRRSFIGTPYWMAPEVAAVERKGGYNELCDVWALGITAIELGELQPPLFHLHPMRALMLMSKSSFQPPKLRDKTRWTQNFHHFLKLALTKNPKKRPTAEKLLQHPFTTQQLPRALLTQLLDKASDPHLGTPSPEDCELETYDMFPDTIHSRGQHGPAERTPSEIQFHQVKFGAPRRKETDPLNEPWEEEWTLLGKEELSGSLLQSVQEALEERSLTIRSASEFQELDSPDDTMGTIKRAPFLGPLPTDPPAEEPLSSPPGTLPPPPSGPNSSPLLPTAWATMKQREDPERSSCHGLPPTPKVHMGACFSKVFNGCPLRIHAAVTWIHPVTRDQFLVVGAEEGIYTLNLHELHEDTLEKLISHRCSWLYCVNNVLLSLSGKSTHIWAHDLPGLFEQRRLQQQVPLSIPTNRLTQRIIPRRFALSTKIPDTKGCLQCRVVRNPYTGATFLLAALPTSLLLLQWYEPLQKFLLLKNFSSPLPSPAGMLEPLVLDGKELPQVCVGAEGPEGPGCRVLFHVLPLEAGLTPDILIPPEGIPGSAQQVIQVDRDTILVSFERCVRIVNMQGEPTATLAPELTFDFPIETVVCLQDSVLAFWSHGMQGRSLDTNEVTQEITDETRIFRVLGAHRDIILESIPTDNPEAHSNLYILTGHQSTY

[2] = molecular target: kinases (KINOMEscan panel) (Homo sapiens, UniProt Q9Y6R4); conditions: MAP3K4; Published KINOMEscan; ref original PKIS2 published data; cited from earlier work
[3] = molecular target: kinases (KINOMEscan panel) (Homo sapiens, UniProt Q08345); conditions: DDR1; Published KINOMEscan; ref original PKIS2 published data; cited from earlier work
[4] = molecular target: kinases (KINOMEscan panel) (Homo sapiens, UniProt P21860); conditions: ERBB3; Published KINOMEscan; ref original PKIS2 published data; cited from earlier work
[5] = molecular target: T2, kinases (KINOMEscan panel) (Homo sapiens, UniProt Q9NRH2); conditions: kinase SNRK; Published KINOMEscan; ref original PKIS2 published data; cited from earlier work
T2 sequence (Q9NRH2 1-765): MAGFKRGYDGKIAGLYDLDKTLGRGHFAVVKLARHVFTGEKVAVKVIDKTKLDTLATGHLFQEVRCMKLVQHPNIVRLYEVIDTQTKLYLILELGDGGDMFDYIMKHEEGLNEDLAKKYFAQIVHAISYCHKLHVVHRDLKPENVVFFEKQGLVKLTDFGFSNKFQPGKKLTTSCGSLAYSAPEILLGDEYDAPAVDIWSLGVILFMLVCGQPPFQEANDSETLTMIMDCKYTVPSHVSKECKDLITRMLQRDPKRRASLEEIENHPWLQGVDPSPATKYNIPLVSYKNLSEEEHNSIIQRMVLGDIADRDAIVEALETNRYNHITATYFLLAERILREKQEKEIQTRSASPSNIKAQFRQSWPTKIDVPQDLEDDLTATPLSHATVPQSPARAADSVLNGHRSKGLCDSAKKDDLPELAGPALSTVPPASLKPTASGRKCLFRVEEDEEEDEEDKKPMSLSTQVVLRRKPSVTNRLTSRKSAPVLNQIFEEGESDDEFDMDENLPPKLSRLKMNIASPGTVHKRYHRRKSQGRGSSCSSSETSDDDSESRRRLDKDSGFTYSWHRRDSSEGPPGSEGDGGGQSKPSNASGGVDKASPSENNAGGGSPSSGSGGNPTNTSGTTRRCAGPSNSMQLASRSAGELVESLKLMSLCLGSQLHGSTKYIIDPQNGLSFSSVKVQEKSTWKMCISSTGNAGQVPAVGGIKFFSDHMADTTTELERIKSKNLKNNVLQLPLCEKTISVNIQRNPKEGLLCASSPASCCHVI

[6] = molecular target: kinases (KINOMEscan panel) (Homo sapiens, UniProt Q9P0L2); conditions: Published KINOMEscan; ref original PKIS2 published data; cited from earlier work
[7] = molecular target: T3, kinases (KINOMEscan panel) (Homo sapiens, UniProt Q8NFD2); conditions: ANKK1; Published KINOMEscan; ref original PKIS2 published data; cited from earlier work
T3 sequence (Q8NFD2 1-765): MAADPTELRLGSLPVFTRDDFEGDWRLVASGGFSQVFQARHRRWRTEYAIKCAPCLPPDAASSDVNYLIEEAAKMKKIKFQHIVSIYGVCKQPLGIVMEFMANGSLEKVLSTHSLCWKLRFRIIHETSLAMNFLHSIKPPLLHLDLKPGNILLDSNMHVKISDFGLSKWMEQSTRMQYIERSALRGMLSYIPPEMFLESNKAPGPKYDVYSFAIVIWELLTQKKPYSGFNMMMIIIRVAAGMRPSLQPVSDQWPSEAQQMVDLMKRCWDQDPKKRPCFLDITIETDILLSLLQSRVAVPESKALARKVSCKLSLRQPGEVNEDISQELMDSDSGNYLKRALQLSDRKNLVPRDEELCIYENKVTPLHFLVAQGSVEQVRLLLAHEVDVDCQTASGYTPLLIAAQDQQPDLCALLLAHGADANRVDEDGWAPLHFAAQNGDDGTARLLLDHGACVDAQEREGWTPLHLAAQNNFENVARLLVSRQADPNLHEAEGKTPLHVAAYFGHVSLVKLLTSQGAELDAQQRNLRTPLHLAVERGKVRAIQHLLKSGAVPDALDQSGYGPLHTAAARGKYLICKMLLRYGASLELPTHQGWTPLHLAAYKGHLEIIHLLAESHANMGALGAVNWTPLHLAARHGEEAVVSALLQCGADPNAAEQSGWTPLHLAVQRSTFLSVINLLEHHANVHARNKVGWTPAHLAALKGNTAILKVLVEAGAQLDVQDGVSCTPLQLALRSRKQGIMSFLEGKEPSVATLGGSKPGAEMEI

kinases (KINOMEscan panel) (Homo sapiens, UniProt Q08345), sequence (Q08345 19-913): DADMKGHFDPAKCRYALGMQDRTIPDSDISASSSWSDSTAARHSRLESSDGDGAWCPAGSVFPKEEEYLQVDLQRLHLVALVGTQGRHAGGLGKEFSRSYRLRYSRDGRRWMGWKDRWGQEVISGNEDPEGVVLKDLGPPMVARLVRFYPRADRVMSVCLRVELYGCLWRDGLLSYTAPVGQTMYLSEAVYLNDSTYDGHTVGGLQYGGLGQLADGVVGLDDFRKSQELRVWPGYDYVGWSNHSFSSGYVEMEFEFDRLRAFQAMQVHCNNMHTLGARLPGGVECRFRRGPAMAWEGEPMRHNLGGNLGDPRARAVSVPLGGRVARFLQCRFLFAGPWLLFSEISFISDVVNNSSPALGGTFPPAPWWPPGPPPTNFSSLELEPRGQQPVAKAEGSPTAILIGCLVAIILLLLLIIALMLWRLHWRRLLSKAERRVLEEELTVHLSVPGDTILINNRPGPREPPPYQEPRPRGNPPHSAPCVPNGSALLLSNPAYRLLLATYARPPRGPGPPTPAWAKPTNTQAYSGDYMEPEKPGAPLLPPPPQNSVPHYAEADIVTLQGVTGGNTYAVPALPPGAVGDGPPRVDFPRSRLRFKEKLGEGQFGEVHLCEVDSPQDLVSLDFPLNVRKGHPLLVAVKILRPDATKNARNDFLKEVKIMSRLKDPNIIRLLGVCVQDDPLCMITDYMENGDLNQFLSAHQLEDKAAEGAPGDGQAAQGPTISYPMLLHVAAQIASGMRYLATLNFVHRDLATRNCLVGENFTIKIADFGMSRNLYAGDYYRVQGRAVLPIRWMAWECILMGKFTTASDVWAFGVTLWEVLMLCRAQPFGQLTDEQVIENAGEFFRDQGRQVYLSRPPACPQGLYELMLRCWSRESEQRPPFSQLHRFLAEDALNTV
kinases (KINOMEscan panel) (Homo sapiens, UniProt Q9P0L2), sequence (Q9P0L2 whole entry): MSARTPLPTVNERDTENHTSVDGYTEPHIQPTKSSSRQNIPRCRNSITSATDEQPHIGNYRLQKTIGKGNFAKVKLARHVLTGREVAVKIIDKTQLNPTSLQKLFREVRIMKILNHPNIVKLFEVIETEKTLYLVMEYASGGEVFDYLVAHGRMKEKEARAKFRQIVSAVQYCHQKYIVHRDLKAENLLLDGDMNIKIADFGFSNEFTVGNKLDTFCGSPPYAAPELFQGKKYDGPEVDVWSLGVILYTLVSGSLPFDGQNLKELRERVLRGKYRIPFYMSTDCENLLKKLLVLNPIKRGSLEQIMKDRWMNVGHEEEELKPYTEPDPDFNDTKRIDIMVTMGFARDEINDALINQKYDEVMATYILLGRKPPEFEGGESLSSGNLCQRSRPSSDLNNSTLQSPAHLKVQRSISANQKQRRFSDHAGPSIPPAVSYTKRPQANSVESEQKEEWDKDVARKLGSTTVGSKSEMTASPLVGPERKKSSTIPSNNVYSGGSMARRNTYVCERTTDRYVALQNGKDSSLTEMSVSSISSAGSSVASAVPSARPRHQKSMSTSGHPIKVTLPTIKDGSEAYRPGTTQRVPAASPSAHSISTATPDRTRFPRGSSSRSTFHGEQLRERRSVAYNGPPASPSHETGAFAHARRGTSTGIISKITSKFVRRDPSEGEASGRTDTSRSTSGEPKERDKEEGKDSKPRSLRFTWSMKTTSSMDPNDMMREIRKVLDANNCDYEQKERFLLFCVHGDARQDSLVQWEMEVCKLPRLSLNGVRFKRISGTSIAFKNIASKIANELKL
kinases (KINOMEscan panel) (Homo sapiens, UniProt P21860), sequence (P21860 20-1342): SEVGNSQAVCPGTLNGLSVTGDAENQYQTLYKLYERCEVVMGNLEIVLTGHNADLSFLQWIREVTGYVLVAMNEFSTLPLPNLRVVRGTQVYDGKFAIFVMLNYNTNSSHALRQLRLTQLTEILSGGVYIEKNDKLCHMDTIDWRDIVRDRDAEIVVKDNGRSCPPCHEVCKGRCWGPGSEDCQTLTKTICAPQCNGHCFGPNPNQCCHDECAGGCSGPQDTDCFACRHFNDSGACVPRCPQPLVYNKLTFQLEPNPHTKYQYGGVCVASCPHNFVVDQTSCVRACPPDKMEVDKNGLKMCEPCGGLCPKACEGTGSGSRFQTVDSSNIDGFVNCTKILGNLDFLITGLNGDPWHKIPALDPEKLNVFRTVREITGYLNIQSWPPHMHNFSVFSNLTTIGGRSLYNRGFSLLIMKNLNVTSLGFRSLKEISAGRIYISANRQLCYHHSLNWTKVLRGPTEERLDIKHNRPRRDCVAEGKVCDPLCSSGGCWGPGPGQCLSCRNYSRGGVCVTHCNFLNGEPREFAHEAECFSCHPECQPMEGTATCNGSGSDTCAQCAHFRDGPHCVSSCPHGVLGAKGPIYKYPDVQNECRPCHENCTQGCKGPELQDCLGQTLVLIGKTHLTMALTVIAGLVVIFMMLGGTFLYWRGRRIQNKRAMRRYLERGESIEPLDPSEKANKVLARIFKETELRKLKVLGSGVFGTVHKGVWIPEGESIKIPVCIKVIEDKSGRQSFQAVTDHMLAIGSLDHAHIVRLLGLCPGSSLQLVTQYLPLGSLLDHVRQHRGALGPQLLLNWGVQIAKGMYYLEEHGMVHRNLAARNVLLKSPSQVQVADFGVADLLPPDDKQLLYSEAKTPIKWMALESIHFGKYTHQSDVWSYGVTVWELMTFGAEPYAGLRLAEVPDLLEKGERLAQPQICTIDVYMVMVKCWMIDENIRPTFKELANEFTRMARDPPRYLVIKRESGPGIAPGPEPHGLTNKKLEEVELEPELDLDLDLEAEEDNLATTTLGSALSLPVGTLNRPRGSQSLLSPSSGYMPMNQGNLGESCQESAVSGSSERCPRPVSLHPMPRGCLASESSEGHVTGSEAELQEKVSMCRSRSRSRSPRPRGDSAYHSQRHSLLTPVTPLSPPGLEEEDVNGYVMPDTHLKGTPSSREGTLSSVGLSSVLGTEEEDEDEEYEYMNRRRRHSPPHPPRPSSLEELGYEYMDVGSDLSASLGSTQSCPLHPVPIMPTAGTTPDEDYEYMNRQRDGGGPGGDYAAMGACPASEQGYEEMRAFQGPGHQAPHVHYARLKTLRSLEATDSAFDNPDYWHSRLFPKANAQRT
kinases (KINOMEscan panel) (Homo sapiens, UniProt Q9Y6R4), sequence (Q9Y6R4 whole entry): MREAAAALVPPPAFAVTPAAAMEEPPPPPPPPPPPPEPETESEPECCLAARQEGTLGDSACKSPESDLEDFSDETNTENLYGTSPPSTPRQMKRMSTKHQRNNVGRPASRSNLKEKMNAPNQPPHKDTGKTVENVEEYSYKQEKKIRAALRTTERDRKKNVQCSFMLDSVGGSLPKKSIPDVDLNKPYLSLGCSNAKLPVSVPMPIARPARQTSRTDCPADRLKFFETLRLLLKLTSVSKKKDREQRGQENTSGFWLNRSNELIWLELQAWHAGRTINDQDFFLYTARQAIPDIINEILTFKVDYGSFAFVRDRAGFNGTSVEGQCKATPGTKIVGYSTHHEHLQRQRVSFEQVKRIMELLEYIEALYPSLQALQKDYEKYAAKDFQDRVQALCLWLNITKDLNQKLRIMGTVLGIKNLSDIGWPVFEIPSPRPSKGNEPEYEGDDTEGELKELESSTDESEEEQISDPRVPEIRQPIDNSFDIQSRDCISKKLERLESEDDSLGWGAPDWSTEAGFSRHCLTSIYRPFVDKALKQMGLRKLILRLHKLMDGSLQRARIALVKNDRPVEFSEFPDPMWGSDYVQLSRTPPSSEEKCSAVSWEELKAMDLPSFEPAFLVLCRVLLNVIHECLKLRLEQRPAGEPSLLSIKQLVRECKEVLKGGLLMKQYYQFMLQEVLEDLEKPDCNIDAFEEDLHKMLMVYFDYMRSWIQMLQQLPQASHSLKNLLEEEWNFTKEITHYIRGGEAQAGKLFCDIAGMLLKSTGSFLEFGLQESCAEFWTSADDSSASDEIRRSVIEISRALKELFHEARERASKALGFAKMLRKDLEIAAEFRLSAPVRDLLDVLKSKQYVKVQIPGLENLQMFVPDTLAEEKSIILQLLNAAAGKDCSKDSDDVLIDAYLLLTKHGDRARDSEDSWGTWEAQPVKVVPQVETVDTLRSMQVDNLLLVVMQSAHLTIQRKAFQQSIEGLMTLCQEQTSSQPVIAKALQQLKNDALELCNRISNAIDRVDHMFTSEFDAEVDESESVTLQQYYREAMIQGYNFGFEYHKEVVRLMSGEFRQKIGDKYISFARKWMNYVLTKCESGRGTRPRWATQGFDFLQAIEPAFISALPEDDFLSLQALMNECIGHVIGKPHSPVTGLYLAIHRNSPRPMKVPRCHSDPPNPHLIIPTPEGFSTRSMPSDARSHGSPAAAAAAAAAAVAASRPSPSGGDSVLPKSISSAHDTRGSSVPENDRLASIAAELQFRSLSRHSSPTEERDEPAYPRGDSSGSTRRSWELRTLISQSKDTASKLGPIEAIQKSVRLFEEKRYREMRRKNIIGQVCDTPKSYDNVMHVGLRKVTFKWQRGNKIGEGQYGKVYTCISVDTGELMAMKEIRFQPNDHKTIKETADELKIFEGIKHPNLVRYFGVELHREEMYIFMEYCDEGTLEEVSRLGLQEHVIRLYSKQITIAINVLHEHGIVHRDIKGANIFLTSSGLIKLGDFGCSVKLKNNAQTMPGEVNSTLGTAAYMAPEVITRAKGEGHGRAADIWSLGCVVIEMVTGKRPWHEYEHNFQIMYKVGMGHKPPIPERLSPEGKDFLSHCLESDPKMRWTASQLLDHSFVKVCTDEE

Cc1cccc(-c2nc(Nc3ccncc3)c3ccccc3n2)n1 [NK215]
KINOMEscan MAP4K2 [1]: 0 | KINOMEscan MAP3K4 [2]: 16 | KINOMEscan DDR1 [3]: 30 | KINOMEscan ERBB3 [4]: 43 | KINOMEscan SNRK [5]: 0 | KINOMEscan MARK1 [6]: 0 | KINOMEscan ANKK1 [7]: 0
